Patent US20250352541A1, “THERAPEUTIC FOR CANCER REFRACTORY TO IMMUNE CHECKPOINT INHIBITOR” (Sumitomo Pharma Co., Ltd., priority 2022, published 2025)

What was measured:
[1] = molecular target: CHK1 (Homo sapiens (Human), UniProt O14757); test: CHK1 inhibitory activity test (IMAP TR-FRET)
[2] = tested on: ES-2 cells; test: Cell growth suppression experiment; type: cell-based
Experimental: ES-2 cells were obtained from the American Type Culture Collection (ATCC). These cells were cultured at 37° C. in the presence of 5% CO2 in a 10% fetal bovine serum, 1% penicillin/streptomycin containing McCoy's 5a medium.
500 cells were seeded for each well in a 384-well plate, and the evaluated compound was added so that the final concentration of DMSO would be 0.1% to culture the cells for 2 days. After completion of the culture, the cell viability rate was calculated using CellTiter-Glo® 3D Reagent (Promega, G968B).
The results of cell growth suppression test on representative compounds of the present disclosure are listed in the following table based on the ranking of I, IT, III, IV, and V (1000 nM<I, 1000 nM>TI>300 nM, 300 nM>III>100 nM, 100 nMV>IV>30 nM, 30 nM>V).

Chain of CHK1 (O14757 whole entry): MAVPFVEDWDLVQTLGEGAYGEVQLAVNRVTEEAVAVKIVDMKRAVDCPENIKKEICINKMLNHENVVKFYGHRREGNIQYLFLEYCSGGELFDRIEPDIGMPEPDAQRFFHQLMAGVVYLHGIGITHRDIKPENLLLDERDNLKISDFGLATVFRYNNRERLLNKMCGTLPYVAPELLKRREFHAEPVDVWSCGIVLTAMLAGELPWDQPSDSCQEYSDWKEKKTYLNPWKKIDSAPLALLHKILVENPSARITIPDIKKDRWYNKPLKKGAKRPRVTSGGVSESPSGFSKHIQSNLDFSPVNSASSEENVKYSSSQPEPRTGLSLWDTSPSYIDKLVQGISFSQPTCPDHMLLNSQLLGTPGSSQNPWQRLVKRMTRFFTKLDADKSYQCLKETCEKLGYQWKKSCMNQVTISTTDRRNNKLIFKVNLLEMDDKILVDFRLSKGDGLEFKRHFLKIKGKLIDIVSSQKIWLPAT

Row | Structure (SMILES) | IC50 [1] [nM] | effect of suppressing CHK1 activity compared with prexasertib [1] | cell growth suppression effect compared with prexasertib [2]
1 | COc1cc(Cl)nc(OCCCN)c1-c1cc(Nc2cnc(C#N)cn2)n[nH]1 [Example 2, 5-({5-[2-(3-aminopropoxy)-6-chloro-4-methoxypyridin-3-yl]-1H-pyrazol-3-yl}amino)pyrazine-2-carbonitrile] | 0.22 | more potent effect of suppressing CHK1 activity than prexasertib | –
2 | COc1cncc(OCCCN)c1-c1cc(Nc2cnc(C#N)cn2)n[nH]1 [Example 3, 5-({5-[3-(3-aminopropoxy)-5-methoxypyridin-4-yl]-1H-pyrazol-3-yl}amino)pyrazine-2-carbonitrile] | 0.22 | more potent effect of suppressing CHK1 activity than prexasertib | excellent cell growth suppression effect that is equivalent to that of prexasertib
3 | COc1nccc(OCCCN)c1-c1cc(Nc2cnc(C#N)cn2)n[nH]1 [Example 4, 5-({5-[4-(3-aminopropoxy)-2-methoxypyridin-3-yl]-1H-pyrazol-3-yl}amino)pyrazine-2-carbonitrile] | 0.23 | more potent effect of suppressing CHK1 activity than prexasertib | excellent cell growth suppression effect that is equivalent to that of prexasertib
4 | COc1nccc(OCC2(C)CNC2)c1-c1cc(Nc2cnc(C#N)cn2)n[nH]1 [Example 6, 5-[(5-{2-methoxy-4-[(3-methylazetidin-3-yl)methoxy]pyridin-3-yl}-1H-pyrazol-3-yl)amino]pyrazine-2-carbonitrile] | 0.27 | more potent effect of suppressing CHK1 activity than prexasertib | excellent cell growth suppression effect that is equivalent to that of prexasertib
5 | COc1nccc(OCC2(O)CNC2)c1-c1cc(Nc2cnc(C#N)cn2)n[nH]1 [Example 7, 5-[(5-{4-[(3-hydroxyazetidin-3-yl)methoxy]-2-methoxypyridin-3-yl}-1H-pyrazol-3-yl)amino]pyrazine-2-carbonitrile] | 0.21 | more potent effect of suppressing CHK1 activity than prexasertib | –
6 | COc1cncc(OCC[C@@H](C)N)c1-c1cc(Nc2cnc(C#N)cn2)n[nH]1 [Example 9, 5-[(5-{3-[(3R)-3-aminobutoxy]-5-methoxypyridin-4-yl}-1H-pyrazol-3-yl)amino]pyrazine-2-carbonitrile] | 0.24 | more potent effect of suppressing CHK1 activity than prexasertib | –
7 | COc1cncc(OCC[C@H](C)N)c1-c1cc(Nc2cnc(C#N)cn2)n[nH]1 [Example 10, 5-[(5-{3-[(3S)-3-aminobutoxy]-5-methoxypyridin-4-yl}-1H-pyrazol-3-yl)amino]pyrazine-2-carbonitrile] | 0.3 | more potent effect of suppressing CHK1 activity than prexasertib | –
8 | COc1cncc(OCC2(CN)CC2)c1-c1cc(Nc2cnc(C#N)cn2)n[nH]1 [Example 11, 5-{[5-(3-{[1-(aminomethyl)cyclopropyl]methoxy}-5-methoxypyridin-4-yl)-1H-pyrazol-3-yl]amino}pyrazine-2-carbonitrile] | 0.18 | more potent effect of suppressing CHK1 activity than prexasertib | excellent cell growth suppression effect that is equivalent to that of prexasertib
9 | COc1cncc(OC[C@@H](O)CN)c1-c1cc(Nc2cnc(C#N)cn2)n[nH]1 [Example 14, 5-[(5-{3-[(2S)-3-amino-2-hydroxypropoxy]-5-methoxypyridin-4-yl}-1H-pyrazol-3-yl)amino]pyrazine-2-carbonitrile] | 0.22 | more potent effect of suppressing CHK1 activity than prexasertib | –
10 | COc1ccnc(OCCCN)c1-c1cc(Nc2cnc(Cl)cn2)n[nH]1 [Example 15, N-{5-[2-(3-aminopropoxy)-4-methoxypyridin-3-yl]-1-H-pyrazol-3-yl}-5-chloropyrazin-2-amine] | 0.26 | more potent effect of suppressing CHK1 activity than prexasertib | excellent cell growth suppression effect that is equivalent to that of prexasertib
11 | COc1cncc(OCC2CNC2)c1-c1cc(Nc2cnc(C#N)cn2)n[nH]1 [Example 18, 5-({5-[3-(azetidin-3-yl)methoxy-5-methoxypyridin-4-yl]-1H-pyrazol-3-yl}amino)pyrazine-2-carbonitrile] | 0.51 | more potent effect of suppressing CHK1 activity than prexasertib | –
12 | COc1cncc(O[C@@H]2CCC[C@H](N)C2)c1-c1cc(Nc2cnc(C#N)cn2)n[nH]1 [Example 19, 5-{[5-(3-{[(1R,3S)-3-aminocyclohexyl]oxy}-5-methoxypyridin-4-yl)-1H-pyrazol-3-yl]amino}pyrazine-2-carbonitrile] | 0.26 | more potent effect of suppressing CHK1 activity than prexasertib | excellent cell growth suppression effect that is equivalent to that of prexasertib
13 | COc1cncc(OC[C@H]2CCNC2)c1-c1cc(Nc2cnc(C#N)cn2)n[nH]1 [Example 21, (S)-5-[(5-{3-methoxy-[5-(pyrrolidin-3-yl)methoxy]pyridin-4-yl}-1H-pyrazol-3-yl)amino]pyrazine-2-carbonitrile] | 0.29 | more potent effect of suppressing CHK1 activity than prexasertib | excellent cell growth suppression effect that is equivalent to that of prexasertib
14 | COc1ncnc(OCC2(CN)CC2)c1-c1cc(Nc2cnc(C#N)cn2)n[nH]1 [Example 23, 5-{[5-(4-{[1-(aminomethyl)cyclopropyl]methoxy}-6-methoxypyrimidin-5-yl)-1H-pyrazol-3-yl]amino}pyrazine-2-carbonitrile] | 0.79 | – | excellent cell growth suppression effect that is equivalent to that of prexasertib
15 | N#Cc1cnc(Nc2cc(-c3c(OCF)cncc3OCCCN)[nH]n2)cn1 [Example 24, 5-({5-[3-(3-aminopropoxy)-5-(fluoromethoxy)pyridin-4-yl]-1H-pyrazol-3-yl}amino)pyrazine-2-carbonitrile] | 0.3 | more potent effect of suppressing CHK1 activity than prexasertib | –
16 | COc1cncc(O[C@@H]2CC[C@@H](N)C2)c1-c1cc(Nc2cnc(C#N)cn2)n[nH]1 [Example 32, 5-{[5-(3-{[(1R,3R)-3-aminocyclopentyl]oxy}-5-methoxypyridin-4-yl)-1H-pyrazol-3-yl]amino}pyrazine-2-carbonitrile] | – | – | excellent cell growth suppression effect that is equivalent to that of prexasertib
17 | COc1cncc(O[C@H](C)C2(O)CNC2)c1-c1cc(Nc2cnc(C#N)cn2)n[nH]1 [Example 34, 5-[(5-{3-[(1R)-1-(3-hydroxyazetidin-3-yl)ethoxy]-5-methoxypyridin-4-yl}-1H-pyrazol-3-yl)amino]pyrazine-2-carbonitrile] | 1.82 | – | –
